Results on one molecule are retold here after patent US20190030114A1, “ISOFORM-SPECIFIC CALPAIN INHIBITORS, METHODS OF IDENTIFICATION, AND USES THEREOF” (WESTERN UNIVERSITY OF HEALTH SCIENCES, priority 2014, published 2019).

Like-named read-outs stand apart in the source and are kept apart here.

For assay [1], the system named is cultured cortical neurons. Description: Bic- and 4-AP-induced neuroprotection against starvation, Hoechst staining. Type of assay: cell-based. Conditions: mCalp-I 200 nM. The text has this: Neuronal death was observed and quantified by Hoechst staining. 300-500 neurons were counted for each group in three to 6 independent experiments. *p<0.05; ns, no significant difference; one-way ANOVA followed by Bonferroni test. n=3-6. Error Bar indicates SEM
Neuronal death was observed and quantified by Hoechst staining. 300-500 neurons were counted for each group in three to 6 independent experiments. *p<0.05; ns, no significant difference; one-way ANOVA followed by Bonferroni test. n=3-6. Error Bar indicates SEM (FIG. 6).

The target in assay [2] is T1, calpain-1 (Homo sapiens, UniProt P07384).
T1 sequence (P07384 1-714): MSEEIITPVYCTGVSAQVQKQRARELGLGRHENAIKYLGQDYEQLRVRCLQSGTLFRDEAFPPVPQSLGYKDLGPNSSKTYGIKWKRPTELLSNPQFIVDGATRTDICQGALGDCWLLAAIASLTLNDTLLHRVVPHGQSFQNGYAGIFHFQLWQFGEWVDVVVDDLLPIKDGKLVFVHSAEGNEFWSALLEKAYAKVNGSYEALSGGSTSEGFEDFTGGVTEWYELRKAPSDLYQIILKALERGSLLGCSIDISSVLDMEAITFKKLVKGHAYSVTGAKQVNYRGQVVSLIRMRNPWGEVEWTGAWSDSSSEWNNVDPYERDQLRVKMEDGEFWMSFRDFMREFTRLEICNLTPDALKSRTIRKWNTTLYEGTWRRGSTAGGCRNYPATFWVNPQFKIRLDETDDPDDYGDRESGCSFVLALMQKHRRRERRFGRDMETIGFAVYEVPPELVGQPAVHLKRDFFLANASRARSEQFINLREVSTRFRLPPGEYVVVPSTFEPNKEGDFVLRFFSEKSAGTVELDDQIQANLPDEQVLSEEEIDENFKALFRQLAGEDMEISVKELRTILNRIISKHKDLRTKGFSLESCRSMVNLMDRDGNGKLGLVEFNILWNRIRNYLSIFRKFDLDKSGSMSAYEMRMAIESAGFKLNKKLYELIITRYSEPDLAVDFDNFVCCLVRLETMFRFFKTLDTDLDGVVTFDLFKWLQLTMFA
T1 sequence (P04632 1-268 partner): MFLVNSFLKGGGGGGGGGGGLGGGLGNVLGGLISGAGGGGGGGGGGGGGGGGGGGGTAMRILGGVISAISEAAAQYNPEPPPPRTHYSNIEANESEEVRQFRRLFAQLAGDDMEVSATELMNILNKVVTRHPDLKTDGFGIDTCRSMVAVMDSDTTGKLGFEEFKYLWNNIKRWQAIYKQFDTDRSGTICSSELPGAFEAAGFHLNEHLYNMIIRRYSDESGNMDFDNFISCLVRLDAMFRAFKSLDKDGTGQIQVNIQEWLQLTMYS
Description: in vitro calpain-1 inhibition, succinic-Leu-Tyr-AMC substrate. Type of assay: biochemical. The procedure:
Formula 1, where chiral center 1 is the L-form and chiral center 2 is a racemic mixture of D- and L- in this example was introduced at various concentrations (from 1 nM to 10 μM) into an in vitro mix comprising succinic-Leu-Tyr-AMC and calpain-1 or calpain-2 (Sasaki et al, 1984), and the kinetics of the loss of fluorescence were determined for each of the calpains (Powers et al, 2000). […] Therefore, the assessment of selectivity described herein was different than the prior teaching.
Formula 1A, where chiral center 1 is the S-form and chiral center 2 is the S-form was separated from the S-R-form (Formula 1B) using methods that are well-known methods for separating diastereoisomers. Formula 1A, which is also referred to herein as compound 18A, in this example was introduced at various concentrations into an in vitro mix comprising succinic-Leu-Tyr-AMC and μ-calpain or m-calpain (Sasaki et al, 1984), and the kinetics of the loss of fluorescence were determined for each of the calpains.

Assay [3] relates to stratum radiatum of field CA1 in acute rat hippocampal slices. The experiment in a line: field EPSP recording, TBS-induced LTP in acute rat hippocampal slices. Conditions: for LTP after theta-burst stimulation: 200 nM, preincubation prior to TBS. It is filed as cell-based. The procedure: Results are expressed as percent of the average values over a 10 min baseline period and are means±S.E.M. of the indicated number of experiments.
FIG. 3A: Field recording of excitatory postsynaptic potentials (EPSPs) performed in stratum radiatum of field CA1 in acute rat hippocampal slices in the presence or absence of 200 nM of the calpain-2 selective inhibitor, Formula I, (mCalp-I in the drawing). Preincubation with mCalp-I enhances LTP. Results are expressed as percent of the average values over a 10 min baseline period and are means±S.E.M. of the indicated number of experiments.
Results are expressed as percent of the average values over the 10 min baseline period and are means±S.E.M. of the indicated number of experiments.
Generic calpain inhibitors block LTP when administered before LTP induction. Field recording of excitatory postsynaptic potentials (EPSPs; FIG. 2) was performed in stratum radiatum of field CA1 in acute rat hippocampal slices.
A calpain 2-selective inhibitor enhances LTP. […]

For assay [4], the target named is T1, calpain-1. The settings on record: Li et al, 1996; read-out: Ki for calpain-1 (μ-calpain), literature; cited from earlier work.

As usually defined, the IC50 is the concentration needed to halve the response being measured. A high value points to a need for much substance. Regarding `CCC(NC(=O)C(CC(C)C)NC(=O)OCc1ccccc1)C(=O)C(=O)NCc1cc(OC)cc(OC)c1` (racemic) [Formula 1, Z-Leu-Abu-CONH—CH2-C6H3 (3, 5-(OMe)2)], the “blocked Bic- and 4-AP-induced neuroprotection against starvation” value in assay [1] was “not”. The Ki is 1290 nM on calpain-1 [2] (Example 1, chiral center 2 racemic, read-out: Ki of calpain-1, re-determined herein); 662 nM at calpain-1 [2] (Example 13, n = 3-5, read-out: Ki Calpain-1); 940 nM at calpain-1 [2] (earlier value, unit inferred, read-out: Previous Value (Calpain-1)); 2300 nM at calpain-1 [4]. Moreover, the 50% inhibitory concentration (IC50) at calpain-1 [2] (n = 3-5) worked out at 910 nM. In addition, the “LTP after theta-burst stimulation” value in assay [3] is reported as “enhances it”; in assay [3] (listed as mCalp-I), “enhances LTP”. Besides, the “LTP during the consolidation phase” value in assay [3] (applied from 10 min post TBS to 1 hour post TBS) was “enhanced LTP”.
